How the values were obtained:
human MOR [1] = molecular target: T1, human MOR (Homo sapiens, UniProt P35372); assay: [35S]-GTPγS binding stimulation, MOR; type: biochemical; details: for EC50: CHO-human MOR membranes, dns = does not stimulate, average maximal stimulation <10% at up to 10 µM; for EC50 / Emax: mean (SEM), * n = 2; for Emax: versus 10 µM standard agonist DAMGO, dns = average maximal stimulation <10% at up to 10 µM
T1 construct: expressed in transfected cells; cell lines provided by Professor Lawrence Toll
Protocol: (§1) Each novel compound was evaluated for binding to and stimulation of KOR, MOR, and DOR. Binding affinity (Ki) was determined by competitive displacement of [^3H]-diprenorphine, a non-selective opioid receptor antagonist with similar affinity for each of the three receptors. Potency (EC50) and efficacy, expressed as percent stimulation compared to a standard agonist at each receptor, were determined by a [^35S]-GTPγS binding assay.
(§2) Membranes prepared from transfected Chinese Hamster Ovary cells stably expressing human KOR, human MOR, or human DOR were used for all assays. Cells were grown to confluence at 37 °C in 5% CO2 in 1:1 DMEM:F12 media with 10% v/v fetal bovine serum and 5% v/v penicillin/streptomycin. Membranes were prepared by washing confluent cells three times with ice cold phosphate-buffered saline (0.9% NaCl, 0.61 mM Na2HPO4, 0.38 mM KH2PO4, pH 7.4). Cells were detached from the plates by incubation in warm harvesting buffer (20 mM HEPES, 150 mM NaCl, 0.68 mM EDTA, pH 7.4) and pelleted by centrifugation at 200× g for 3 min. The cell pellet was suspended in ice-cold 50 mM Tris-HCl buffer, pH 7.4 and homogenized with a Tissue Tearor (Biospec Products, Inc, distributed by Cole-Parmer, Vernon Hills, IL, USA) for 20 s at setting 4. The homogenate was centrifuged at 20,000× g for 20 min at 4 °C, and the pellet was rehomogenized in 50 mM Tris-HCl pH 7.4 with a Tissue Tearor for 10 s at setting 2, followed by recentrifugation. The final pellet was resuspended in 50 mM Tris-HCl pH 7.4 and frozen in aliquots at −80 °C. Protein concentration was determined via Pierce BCA protein assay kit using bovine serum albumin as the standard.
(§3) Agonist stimulation of KOR, MOR, and DOR by all test compounds was determined by [^35S]-guanosine 5′-O-[γ-thio]triphosphate ([^35S]-GTPγS) binding assays as previously reported. In a 96-well plate format, membranes from cells expressing opioid receptors as described above (10 µg of protein), [^35S]-GTPγS (0.1 nM), and guanosine diphosphate (30 µM) were incubated in GTPγS buffer (50 mM Tris-HCl, 100 mM NaCl, 5 mM MgCl2, 1 mM EDTA, pH 7.4) with various concentrations of test compound at 25 °C for 1 h. Basal stimulation was determined by incubation in the absence of any ligand. After incubation, membranes were filtered through Whatman GF/C 1.2 micron glass fiber filters and washed with GTPγS buffer with no EDTA. The radioactivity remaining on the filters was then quantified by liquid scintillation counting after saturation with EcoLume liquid scintillation cocktail in a Perkin-Elmer Microbeta 2450. Data are reported as percent stimulation compared to the effects of 10 µM standard agonists—U69,593 (KOR), DAMGO (MOR), or DPDPE (DOR). Percent stimulation and EC50 values were determined via nonlinear regression analysis using GraphPad Prism software from at least three separate assays performed in duplicate. Efficacy is expressed as percent stimulation relative to standard agonists.

human DOR [2] = molecular target: T2, human DOR (Homo sapiens, UniProt P41143); assay: [3H]-diprenorphine competitive displacement binding, DOR; details: membranes from CHO cells expressing human DOR; mean (SEM), n>=3 in duplicate
T2 construct: expressed in transfected cells; cell lines provided by Professor Lawrence Toll
Protocol: as §1, §2
(§4) Binding affinities for all test compounds at KOR, MOR, and DOR were determined by competitive displacement of [^3H]-diprenorphine as previously reported. In a 96-well plate format, cell membranes (5–10 µg of protein) and [^3H]-diprenorphine (0.2 nM) were incubated in Tris-HCl buffer (50 mM, pH 7.4) with various concentrations of test compound at 25 °C for 1 h, allowing the mixture to reach equilibrium. Nonspecific binding was determined using the opioid antagonist naloxone (10 µM), and total binding was determined using vehicle in the absence of competitive ligand. After incubation, membranes were filtered through Whatman GF/C 1.2 micron glass fiber filters and washed with 50 mM Tris-HCl buffer. The radioactivity remaining on the filters was then quantified by liquid scintillation counting after saturation with EcoLume liquid scintillation cocktail in a Microbeta 2450 (Perkin-Elmer, Waltham, MA, USA). Binding affinity (Ki) values were calculated using the Cheng–Prusoff equation via nonlinear regression analysis using GraphPad Prism software from at least three separate binding assays performed in duplicate.

human MOR [3] = molecular target: T1, human MOR; assay: [3H]-diprenorphine competitive displacement binding, MOR; details: membranes from CHO cells expressing human MOR; mean (SEM), n>=3 in duplicate
Protocol: as §1, §2, §4

human KOR [4] = molecular target: T3, human KOR (Homo sapiens, UniProt P41145); assay: [3H]-diprenorphine competitive displacement binding, KOR; details: for Ki: membranes from CHO cells expressing human KOR, mean (SEM), n>=3 in duplicate
T3 construct: expressed in transfected cells; cell lines provided by Professor Lawrence Toll
Protocol: as §1, §2, §4

human DOR [5] = molecular target: T2, human DOR; assay: [35S]-GTPγS binding stimulation, DOR; type: biochemical; details: mean (SEM), * n = 2; for EC50 DOR / EC50: CHO-human DOR membranes, dns = does not stimulate, average maximal stimulation <10% at up to 10 µM; for % Stimulation DOR: versus 10 µM standard agonist DPDPE, dns = average maximal stimulation <10% at up to 10 µM
Protocol: as §1, §2, §3

human KOR [6] = molecular target: T3, human KOR; assay: [35S]-GTPγS binding stimulation, KOR; type: biochemical; details: mean (SEM); for EC50 / EC50 KOR: CHO-human KOR membranes, * n = 2, dns = does not stimulate, average maximal stimulation <10% at up to 10 µM; for Emax / % Stimulation KOR: versus 10 µM standard agonist U69,593, dns = average maximal stimulation <10% at up to 10 µM
Protocol: as §1, §2, §3

SMILES: Cc1cc(O)cc(C)c1C[C@H](N)C(=O)N1CCc2ccc(Cc3ccccc3C#N)cc2C1 [Compound 8d, (S)-2-((2-(2-amino-3-(4-hydroxy-2,6-dimethylphenyl)propanoyl)-1,2,3,4-tetrahydroisoquinolin-7-yl)methyl)benzonitrile]
- EC50 (human MOR [1]): 664 nM
- Emax (human MOR [1]): 31%
- Ki (human DOR [2]): 3.6 nM
- Ki (human MOR [3]): 6.8 nM
- Ki (human KOR [4]): 0.5 nM
- EC50 DOR (human DOR [5]): dns
- % Stimulation DOR (human DOR [5]): dns
- EC50 (human KOR [6]): 3.7 nM
- Emax (human KOR [6]): 80%

SMILES: Cc1cccc(Cc2ccc3c(c2)CN(C(=O)[C@@H](N)Cc2c(C)cc(O)cc2C)CC3)c1C [Compound 8i, (S)-2-amino-1-(7-(2,3-dimethylbenzyl)-3,4-dihydroisoquinolin-2(1H)-yl)-3-(4-hydroxy-2,6-dimethylphenyl)propan-1-one]
- EC50 (human MOR [1]): 380 nM
- Emax (human MOR [1]): 34%
- Ki (human DOR [2]): 3.6 nM
- Ki (human MOR [3]): 5.2 nM
- Ki (human KOR [4]): 5.8 nM
- EC50 DOR (human DOR [5]): dns *
- % Stimulation DOR (human DOR [5]): dns *
- EC50 (human KOR [6]): 1030 nM
- Emax (human KOR [6]): 54%

SMILES: Cc1cc(O)cc(C)c1C[C@H](N)C(=O)N1CCc2ccc(CN3Cc4ccccc4C3)cc2C1 [Compound 8z, (S)-2-amino-3-(4-hydroxy-2,6-dimethylphenyl)-1-(7-(isoindolin-2-ylmethyl)-3,4-dihydroisoquinolin-2(1H)-yl)propan-1-one]
- EC50 (human MOR [1]): 27 nM
- Emax (human MOR [1]): 63%
- Ki (human DOR [2]): 1.3 nM
- Ki (human MOR [3]): 1.5 nM
- selectivity for MOR and DOR over KOR (human KOR [4]; binding selectivity): 43 fold
- Ki (human KOR [4]): 65 nM
- EC50 DOR (human DOR [5]): dns *
- % Stimulation DOR (human DOR [5]): dns *
- EC50 KOR (human KOR [6]): dns
- % Stimulation KOR (human KOR [6]): dns

SMILES: Cc1cc(O)cc(C)c1C[C@H](N)C(=O)N1CCc2ccc(Cc3cccc4ncccc34)cc2C1 [Compound 8t, (S)-2-amino-3-(4-hydroxy-2,6-dimethylphenyl)-1-(7-(quinolin-5-ylmethyl)-3,4-dihydroisoquinolin-2(1H)-yl)propan-1-one]
- EC50 (human MOR [1]): 54 nM
- more potent at MOR (versus KOR) (human MOR [1]; ratio of EC50 values, GTPγS): equipotent
- Emax (human MOR [1]): 31%
- Ki (human DOR [2]): 1.2 nM
- Ki (human MOR [3]): 4.6 nM
- selective for KOR and DOR over MOR (human KOR [4]; binding selectivity): approximately 3 fold
- Ki (human KOR [4]): 1.5 nM
- EC50 DOR (human DOR [5]): dns *
- % Stimulation DOR (human DOR [5]): dns *
- EC50 (human KOR [6]): 58 nM
- Emax (human KOR [6]): 69%

SMILES: Cc1cc(O)cc(C)c1C[C@H](N)C(=O)N1CCc2ccc(CN3CCc4ccccc4C3)cc2C1 [Compound 8w, (S)-2-amino-1-(7-((3,4-dihydroisoquinolin-2(1H)-yl)methyl)-3,4-dihydroisoquinolin-2(1H)-yl)-3-(4-hydroxy-2,6-dimethylphenyl)propan-1-one]
- EC50 (human MOR [1]): 8.2 nM
- Emax (human MOR [1]): 85%
- Ki (human DOR [2]): 2.3 nM
- Ki (human MOR [3]): 0.6 nM
- selectivity for MOR and DOR over KOR (human KOR [4]; binding selectivity): 18 fold
- Ki (human KOR [4]): 42 nM
- EC50 DOR (human DOR [5]): dns *
- % Stimulation DOR (human DOR [5]): dns *
- EC50 KOR (human KOR [6]): dns
- % Stimulation KOR (human KOR [6]): dns

SMILES: Cc1cc(O)cc(C)c1C[C@H](N)C(=O)N1CCc2ccc(Cc3ccccc3C(F)(F)F)cc2C1 [Compound 8c, (S)-2-amino-3-(4-hydroxy-2,6-dimethylphenyl)-1-(7-(2-(trifluoromethyl)benzyl)-3,4-dihydroisoquinolin-2(1H)-yl)propan-1-one]
- EC50 (human MOR [1]): 53 nM
- Emax (human MOR [1]): 76%
- Ki (human DOR [2]): 4.9 nM
- Ki (human MOR [3]): 4.3 nM
- Ki (human KOR [4]): 2.6 nM
- EC50 (human DOR [5]): 342 nM
- % Stimulation DOR (human DOR [5]): 24 (3) %
- EC50 (human KOR [6]): 173 nM
- Emax (human KOR [6]): 81%

SMILES: Cc1cc(O)cc(C)c1C[C@H](N)C(=O)N1CCc2ccc(Cc3ccnc4ccccc34)cc2C1 [Compound 8u, (S)-2-amino-3-(4-hydroxy-2,6-dimethylphenyl)-1-(7-(quinolin-4-ylmethyl)-3,4-dihydroisoquinolin-2(1H)-yl)propan-1-one]
- EC50 (human MOR [1]): 54 nM
- Emax (human MOR [1]): 45%
- Ki (human DOR [2]): 0.79 nM
- Ki (human MOR [3]): 6.6 nM
- Ki (human KOR [4]): 8.6 nM
- EC50 DOR (human DOR [5]): dns *
- % Stimulation DOR (human DOR [5]): dns *
- EC50 KOR (human KOR [6]): dns
- % Stimulation KOR (human KOR [6]): dns

SMILES: Cc1cc(O)cc(C)c1C[C@H](N)C(=O)N1CCc2ccc(Cc3cncc4ccccc34)cc2C1 [Compound 8v, (S)-2-amino-3-(4-hydroxy-2,6-dimethylphenyl)-1-(7-(isoquinolin-4-ylmethyl)-3,4-dihydroisoquinolin-2(1H)-yl)propan-1-one]
- EC50 (human MOR [1]): 12 nM
- Emax (human MOR [1]): 81%
- Ki (human DOR [2]): 0.3 nM
- Ki (human MOR [3]): 1.4 nM
- Ki (human KOR [4]): 0.73 nM
- EC50 (human DOR [5]): 19 nM
- % Stimulation DOR (human DOR [5]): 39 (7) %
- EC50 (human KOR [6]): 14 nM
- Emax (human KOR [6]): 71%

SMILES: Cc1cc(O)cc(C)c1C[C@H](N)C(=O)N1CCc2ccc(CN3CCCc4ccccc43)cc2C1 [Compound 8x, (S)-2-amino-1-(7-((3,4-dihydroquinolin-1(2H)-yl)methyl)-3,4-dihydroisoquinolin-2(1H)-yl)-3-(4-hydroxy-2,6-dimethylphenyl)propan-1-one]
- EC50 (human MOR [1]): 73 nM
- Emax (human MOR [1]): 65%
- Ki (human DOR [2]): 6.6 nM
- Ki (human MOR [3]): 7.2 nM
- Ki (human KOR [4]): 7.1 nM
- EC50 DOR (human DOR [5]): dns *
- % Stimulation DOR (human DOR [5]): dns *
- EC50 (human KOR [6]): 375 nM
- Emax (human KOR [6]): 67%

SMILES: Cc1cc(O)cc(C)c1C[C@H](N)C(=O)N1CCc2ccc(Cc3cccc4cccnc34)cc2C1 [Compound 8q, (S)-2-amino-3-(4-hydroxy-2,6-dimethylphenyl)-1-(7-(quinolin-8-ylmethyl)-3,4-dihydroisoquinolin-2(1H)-yl)propan-1-one]
- EC50 (human MOR [1]): 24 nM
- Emax (human MOR [1]): 63%
- Ki (human DOR [2]): 0.46 nM
- Ki (human MOR [3]): 1.4 nM
- Ki (human KOR [4]): 19 nM
- EC50 (human DOR [5]): 1.2 nM
- % Stimulation DOR (human DOR [5]): 23 (4) %
- EC50 (human KOR [6]): 258 nM
- Emax (human KOR [6]): 25%

SMILES: Cc1cc(O)cc(C)c1C[C@H](N)C(=O)N1CCc2ccc(Cc3cccc(C(F)(F)F)c3)cc2C1 [Compound 8g, (S)-2-amino-3-(4-hydroxy-2,6-dimethylphenyl)-1-(7-(3-(trifluoromethyl)benzyl)-3,4-dihydroisoquinolin-2(1H)-yl)propan-1-one]
- EC50 (human MOR [1]): 205 nM
- Emax (human MOR [1]): 45%
- Ki (human DOR [2]): 1.6 nM
- Ki (human MOR [3]): 4.1 nM
- Ki (human KOR [4]): 5.4 nM
- EC50 DOR (human DOR [5]): dns
- % Stimulation DOR (human DOR [5]): dns
- EC50 (human KOR [6]): 319 nM
- Emax (human KOR [6]): 68%

— paper PMC6930500, “Structure–Activity Relationships of 7-Substituted Dimethyltyrosine-Tetrahydroisoquinoline Opioid Peptidomimetics” (Molecules, 2019)
